Here are results for three compounds from PMC10905627 (Oncogene, 2018).

Series [1] can be described thus: Metabolic stability in mouse liver microsomes. The class given is in vitro ADME. Background: Liver microsomes are a subcellular fraction often used to study metabolism.
In the next series the test system is H1299 lung cancer cells. The series is described as follows: Cell viability. The class given is cell-based, human. The conditions noted are these: for effect on JL5-induced cell death: H1299, pretreated 1 h, then JL5 3 days.
Series [2] is described as follows: LCMS of stored solid sample. The class given is physicochemical. The conditions noted are these: stored as a solid in a desiccator for 4 months.
For series [3] the following is noted: cited from earlier work.
Another series concerns the target T1, ALK2/ACVR1 (Homo sapiens, UniProt Q04771).
T1 sequence (Q04771 21-509): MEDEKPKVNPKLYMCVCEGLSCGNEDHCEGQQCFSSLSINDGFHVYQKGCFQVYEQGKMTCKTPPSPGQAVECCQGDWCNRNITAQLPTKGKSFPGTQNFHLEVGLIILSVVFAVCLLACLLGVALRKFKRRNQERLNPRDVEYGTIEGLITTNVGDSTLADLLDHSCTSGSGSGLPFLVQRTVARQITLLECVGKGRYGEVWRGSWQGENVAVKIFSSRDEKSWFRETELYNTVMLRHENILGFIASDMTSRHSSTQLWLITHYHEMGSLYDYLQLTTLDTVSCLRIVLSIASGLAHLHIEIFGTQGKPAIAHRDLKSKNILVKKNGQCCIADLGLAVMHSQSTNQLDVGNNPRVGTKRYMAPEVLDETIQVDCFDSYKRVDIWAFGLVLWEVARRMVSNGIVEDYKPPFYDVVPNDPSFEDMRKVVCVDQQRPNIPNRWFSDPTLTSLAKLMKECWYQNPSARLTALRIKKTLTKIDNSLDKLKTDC
Particulars: read-out: IC50 ALK2/ACVR1; previously reported; cited from earlier work.

The target in the next series is ALK3/BMPR1A (Homo sapiens, UniProt P36894). Particulars: read-out: IC50 ALK3/BMPR1A; previously reported; cited from earlier work.
ALK3/BMPR1A, sequence (P36894 24-532): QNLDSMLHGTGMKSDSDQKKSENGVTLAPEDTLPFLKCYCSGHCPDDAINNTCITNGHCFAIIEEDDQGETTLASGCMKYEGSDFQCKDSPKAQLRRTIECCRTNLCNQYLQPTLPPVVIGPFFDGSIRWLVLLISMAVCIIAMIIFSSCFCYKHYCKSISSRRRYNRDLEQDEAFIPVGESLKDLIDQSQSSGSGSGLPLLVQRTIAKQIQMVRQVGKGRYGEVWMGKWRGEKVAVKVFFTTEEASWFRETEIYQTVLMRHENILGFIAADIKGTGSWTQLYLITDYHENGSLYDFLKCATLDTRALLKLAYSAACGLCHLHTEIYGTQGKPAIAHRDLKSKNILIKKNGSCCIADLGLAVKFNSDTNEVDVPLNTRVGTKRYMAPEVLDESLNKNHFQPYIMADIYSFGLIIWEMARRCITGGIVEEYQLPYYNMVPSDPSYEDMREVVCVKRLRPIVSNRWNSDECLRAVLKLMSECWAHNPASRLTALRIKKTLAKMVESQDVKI
The target in another series is ALK6/BMPR1B (Homo sapiens, UniProt O00238). The conditions noted are these: read-out: IC50 ALK6/BMPR1B; previously reported; cited from earlier work.
ALK6/BMPR1B, sequence (O00238 14-502): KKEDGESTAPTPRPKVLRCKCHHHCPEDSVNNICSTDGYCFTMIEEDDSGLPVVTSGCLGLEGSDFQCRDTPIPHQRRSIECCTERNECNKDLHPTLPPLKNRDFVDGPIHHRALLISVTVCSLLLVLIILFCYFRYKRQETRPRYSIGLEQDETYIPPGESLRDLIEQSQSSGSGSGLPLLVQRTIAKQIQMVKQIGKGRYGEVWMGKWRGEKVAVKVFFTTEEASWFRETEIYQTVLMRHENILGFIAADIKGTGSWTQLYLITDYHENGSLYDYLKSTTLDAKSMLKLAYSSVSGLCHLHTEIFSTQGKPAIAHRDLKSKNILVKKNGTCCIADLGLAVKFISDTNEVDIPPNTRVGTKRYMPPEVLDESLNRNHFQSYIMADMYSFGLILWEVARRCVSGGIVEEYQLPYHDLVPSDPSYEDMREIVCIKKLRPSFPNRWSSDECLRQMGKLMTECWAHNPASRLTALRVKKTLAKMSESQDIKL
The target in a further series is T2, BMPR2 (Homo sapiens, UniProt Q13873).
T2 sequence (Q13873 27-1038): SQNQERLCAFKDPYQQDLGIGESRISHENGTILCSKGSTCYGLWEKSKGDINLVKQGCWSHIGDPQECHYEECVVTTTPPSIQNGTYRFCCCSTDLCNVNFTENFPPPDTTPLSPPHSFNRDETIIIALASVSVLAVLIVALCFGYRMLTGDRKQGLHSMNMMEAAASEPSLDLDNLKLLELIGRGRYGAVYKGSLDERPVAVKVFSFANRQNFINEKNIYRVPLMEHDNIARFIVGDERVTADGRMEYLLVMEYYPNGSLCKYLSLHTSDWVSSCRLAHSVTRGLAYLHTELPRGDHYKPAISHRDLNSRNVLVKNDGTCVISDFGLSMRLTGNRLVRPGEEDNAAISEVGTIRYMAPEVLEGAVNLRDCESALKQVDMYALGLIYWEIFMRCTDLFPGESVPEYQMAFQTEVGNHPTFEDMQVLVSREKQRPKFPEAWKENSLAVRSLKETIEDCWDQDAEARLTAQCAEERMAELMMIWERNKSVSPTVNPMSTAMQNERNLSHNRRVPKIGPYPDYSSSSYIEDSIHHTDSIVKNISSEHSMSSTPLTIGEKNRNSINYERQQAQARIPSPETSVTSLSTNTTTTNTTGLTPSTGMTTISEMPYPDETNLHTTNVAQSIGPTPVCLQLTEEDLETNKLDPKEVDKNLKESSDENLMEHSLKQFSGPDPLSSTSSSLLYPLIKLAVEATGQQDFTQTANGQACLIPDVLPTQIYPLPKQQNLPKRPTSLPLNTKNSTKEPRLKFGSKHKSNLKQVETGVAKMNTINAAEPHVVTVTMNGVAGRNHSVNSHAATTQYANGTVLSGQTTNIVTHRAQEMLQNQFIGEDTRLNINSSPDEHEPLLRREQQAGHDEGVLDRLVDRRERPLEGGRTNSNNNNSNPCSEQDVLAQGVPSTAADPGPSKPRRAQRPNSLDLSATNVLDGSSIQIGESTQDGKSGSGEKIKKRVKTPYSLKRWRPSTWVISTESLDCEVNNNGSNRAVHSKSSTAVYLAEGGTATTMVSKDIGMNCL
The conditions noted are these: read-out: IC50 BMPR2; previously reported; cited from earlier work.

The test system of series [4] is Id1, TAK1, XIAP in H1299 tumors. The conditions noted are these: similar doses; cited from earlier work.

Like-named read-outs stand apart in the source and are kept apart here. Peptide text beside a SMILES is read from it. * marks the point of attachment. Cbz = O=C(OCc1ccccc1)*; CH2F = FC*

By Vss is commonly meant the apparent volume that relates the amount in the body to the concentration in plasma or blood. By half-life is commonly meant the time needed for the level to fall by half in the phase considered. For `c1ccc2c(-c3cnn4cc(-c5ccc(OCCN6CCOCC6)cc5)cnc34)ccnc2c1` [DMH2], the ClearanceINT in series [1] is 250 mL/min/kg. The “cell death, JL5 compared with DMH2” value with H1299 lung cancer cells (H1299, 2.5 μM, 3 days) is on record as “same amount of cell death”. The “chemical stability on storage (LCMS)” value in series [2] is “revealed a phenolic byproduct due to morpholine side-chain hydrolysis”. Moreover, in series [3] (i.v.), the AUCinf is 487 ng·h/mL, the AUClast is 485 ng·h/mL, the CL is recorded as 68 mL/min/kg and the T1/2 is 57 min. The volume of distribution (Vss) in series [3] (i.v.) is listed as 0.95 L/kg. Moreover, in [3] (p.o.), the AUCinf was 729 ng·h/mL, the AUClast is 707 ng·h/mL and the C0/Cmax is 684 ng/mL. The half-life in [3] (stated in discussion) is listed as 60 min. Besides, at ALK2/ACVR1, the IC50 was 23 nM. Also, the IC50 at ALK3/BMPR1A was 92 nM. In addition, on ALK6/BMPR1B, the IC50 is 43 nM. The IC50 at BMPR2 is 7950 nM. The “downregulation of Id1, pTAK1, XIAP in tumor xenografts” value in series [4] is reported as “did not downregulate Id1, pTAK1, or XIAP”.

As to `COC(=O)C[C@H](NC(=O)[C@H](C)NC(=O)[C@@H](NC(=O)OCc1ccccc1)C(C)C)C(=O)CF` [Z-VAD-FMK] (Cbz-Val-Ala-Asp(OMe)-CH2F), the “effect on JL5-induced cell death” value with H1299 lung cancer cells is given as “partially inhibited”.

As for `CN1C(=O)C(Cc2c[nH]c3ccccc23)NC1=S` (stereo not shown) [necrostatin-1], the “effect on JL5-induced cell death” value in the series with H1299 lung cancer cells is reported as “had no effect”.
